Like-named read-outs stand apart in the source and are kept apart here.
Tests used:
[1] = tested on: eIF5A hypusination in MCF7 cells; assay: eIF5A hypusination in intact MCF7 cells, Western blot; assay type: cell-based, human; conditions: 24 h
Method: We tested the ability of the GC7 analogs to inhibit hypusination in intact cells. MCF-7 cells (Fig 5B), a classical model of breast cancer cell line, and HT29 cells (Fig 5C), a cell model of colorectal cancer, were treated with 40 μM of GC7, 1, 2, 3, and 4 for 24h. Cells were lysed and analyzed by Western blot. As observed, none of the molecules modified eIF5A expression. […] GC7 analogs inhibited hypusination from 35 to 55%.
The human breast cancer cell line MCF7 (HTB-22 ATCC) and colorectal adenocarcinoma HT29 (HTB-38 ATCC) were cultured in DMEM (Gibco) supplemented with 10% FBS (Dutscher), 10 U/mL penicillin, and […] streptomycin. 1 mM of aminoguanidine was added to the medium to inhibit the degradation of GC7 and polyamines by amine oxidase from the serum and the production of reactive oxygen species. Cells were maintained at 37°C, 5% CO2 in a humid atmosphere.
After treatment, cells were washed with ice-cold PBS and lysed in RIPA Buffer (50 mM Tris pH 7.5, 150 mM NaCl, 0.1% SDS, 0.5% Na Deoxycholate, 5 mM NaF, 2.5 mM Na4P2O7, 1% NP4O) containing a protease inhibitor cocktail (complete Roche). 10 μg of proteins were separated by SDS PAGE and transferred to a PVDF membrane (Immobilon-P Millipore). The membranes were probed with the appropriate primary antibody that was detected by horseradish peroxidase-conjugated secondary antibody (Jackson Immunoresearch) and visualized by chemiluminescence (ECL Amersham RPN 3244) using a Fuji LAS-4000 imager. ImageJ® software was used to quantify band intensity and the ratios of proteins of interest were normalized to a loading control. Full-length Western blots are provided in the supplementary data (S19, S20 Figs).

DOHH = molecular target: T1, DOHH (Homo sapiens, UniProt Q9BU89); assay: Hyp'Assay, substance added after the deoxyhypusination reaction (DOHH step); assay type: biochemical; conditions: 5 μM spermidine
T1 construct: pelB leader (N); host or cells: E. coli BL21 (DE3)
T1 sequence (Q9BU89 1-302): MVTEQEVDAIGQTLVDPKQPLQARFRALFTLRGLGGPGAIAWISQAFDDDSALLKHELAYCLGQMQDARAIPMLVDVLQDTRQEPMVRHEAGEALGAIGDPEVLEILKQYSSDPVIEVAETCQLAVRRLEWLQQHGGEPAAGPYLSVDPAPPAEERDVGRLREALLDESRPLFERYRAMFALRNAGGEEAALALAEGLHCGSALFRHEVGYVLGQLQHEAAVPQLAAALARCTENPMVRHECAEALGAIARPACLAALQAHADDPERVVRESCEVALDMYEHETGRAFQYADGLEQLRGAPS
Method: We then tested the ability of DOHH inhibitors to inhibit eIF5A hypusination using the Hyp’Assay. During the Hyp’Assay, DOHH inhibitors were added after the deoxyhypusination reaction.
To address this issue, we compared the ability of GC7 to inhibit DHPS or DOHH by adding GC7 during the first step of the Hyp’Assay; when DHPS mediates the deoxyhypusination reaction (Fig 2A), or only during the second step, when DOHH hydroxylate deoxyhypusinated eIF5A. […] When finding new hypusination inhibitors adding them during the first or the second step of the Hyp’Assay will allow us to determine if the inhibition affects DHPS or DOHH. Another way to discriminate between DHPS or DOHH inhibitors would be to use Hpu98, an antibody that recognized both hypusinated and deoxyhypusinated eIF5A, instead of Hpu24, which is specific for hypusinated eIF5A [18]. […] We performed a new Hyp’Assay by omitting DOHH in the reaction mix and using the Hpu98 antibody. First, we performed a dose response experiment with spermidine at pH: 8.0 and 9.0 (Fig 3E). […] We also tested the ability of GC7 (Fig 3F) and CPX or EDTA (Fig 3G) to inhibit DHPS.
[…] Then 10 μL containing 1 μg of DOHH with 10 μM Fe^2+ (H8FeN2O8S2^. 6H2O) were added. After 1 h proteins were analyzed by Western Blot using antibodies toward DHPS, DOHH, Hypusine, and eIF5A.
The cell-free reaction described in 4.4 is performed in triplicates in a 96-wells plate (MaxiSorp, ThermoFisher) in the presence of 3 μg of eIF5A, 2 μg of DHPS, and 2 μg of DOHH by well. The reaction product, hypusinated eIF5A, is adsorbed onto the plate overnight at 4°C. The plate is washed (100 μL/well) thrice with PBS-T (PBS– 0.05% Tween20), then saturated with 1% non-fat dry milk in PBS-T for 2 h at room temperature. The plate is washed thrice with PBS-T and incubated overnight at 4°C with the anti-hypusine antibody (1:2000 in saturation buffer, 50 μL/well). The next day and after 5 washes with PBS-T, HRP-coupled anti-rabbit secondary antibody diluted 1:5000 in saturation buffer (50 μL/well) is added for 2 h at room temperature.

DHPS = conditions: read-out: IC50 previously reported, cited from earlier work

Question: What does the source list for `N=C(N)NCCCCCCCN` [GC7, N1-guanyl-1,7-diaminoheptane]?
Answer: hypusinated eIF5A, Western blot quantification, Mean (Figure 5B) ([1]; 40 μM, Ctrl 100, 4 experiments): 20.45; inhibition at 40 µM ([1]; Homo sapiens): 80%; Relative hypusination of eIF5A, Mean (quantification from Figure 3D) (DOHH; GC7 added during the DOHH step, CTRL 100,0): 99,58 a.u; effect on hypusination (DOHH; added only during the hydroxylation step (DOHH)): no inhibition was observed; IC50 (DHPS; ref 25): 17 nM; IC50 (DHPS; ref 26): 50 nM
